The values below come from US9745289B2, “Aldosterone synthase inhibitors” (Boehringer Ingelheim International GmbH, priority 2014, dated 2017).

Where “and” joins values, the source holds several entries; their conditions need not be identical. Equal values may be shown once. Some results are limits rather than exact numbers.

This experiment addresses cortisol synthase (CYP11B1) (Macaca fascicularis, UniProt A0A2K5ULY1). Nature of the experiment: Inhibition of Cortisol Synthesis. In kind it is biochemical, cynomolgus monkey. To be noted: cynomolgus adrenal gland mitochondria; 150 units of CYP11B1, 11-deoxycortisol as substrate, cortisol measured as product. Put shortly: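 Cynomolgus adrenal mitochondria as enzyme source (1 unit = 1 pmol product/h); 150 units CYP11B1 with 11-deoxycortisol substrate in 100 mM potassium phosphate pH 7.4, 1% DMSO, started with 1 mM NADPH, 90 min at 37 °C. Cortisol quantified by mass spectrometry; no-NADPH blank as 0%, no-compound as 100% activity.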
For `NC(=O)c1cccc2c1OCC(c1cncc(O[C@@H]3CCOC3)c1)O2` (single isomer, unassigned) [Cpd 46B], the midpoint of inhibition, the IC50, lay at 4.2 µM.

`NC(=O)c1cccc2c1OCC(c1cncc(OC3CCOCC3)c1)O2` (single isomer, unassigned) [Cpd 47A, 2-[5-(Tetrahydro-pyran-4-yloxy)-pyridin-3-yl]-2,3-dihydro-benzo[1,4]dioxine-5-carboxylic acid amide] registered an IC50 of 8.5 µM.

Molecule `NC(=O)c1cccc2c1OCC(c1cncc(OC3CCOCC3)c1)O2` (single isomer, unassigned) [Cpd 47B, 2-[5-(Tetrahydro-pyran-4-yloxy)-pyridin-3-yl]-2,3-dihydro-benzo[1,4]dioxine-5-carboxylic acid amide] displayed an IC50 of 1.2 µM.

On to `CC(C)C(=O)N1CCC(Oc2cncc(C3COc4c(cccc4C(N)=O)O3)c2)CC1` (single isomer, unassigned) [Cpd 48A, 2-[5-(1-isobutyryl-piperidin-4-yloxy)-pyridin-3-yl]-2,3-dihydro-benzo[1,4]dioxine-5-carboxylic acid amide], for which the IC50 was found to be 3.1 µM.

`CC(C)C(=O)N1CCC(Oc2cncc(C3COc4c(cccc4C(N)=O)O3)c2)CC1` (single isomer, unassigned) [Cpd 48B, 2-[5-(1-isobutyryl-piperidin-4-yloxy)-pyridin-3-yl]-2,3-dihydro-benzo[1,4]dioxine-5-carboxylic acid amide] had an IC50 of 0.24 µM.

The molecule `NC(=O)c1cccc2c1OCC(c1cncc(C(O)C(F)(F)F)c1)O2` (single isomer, unassigned) [Cpd 49AA, 2-[5-(2,2,2-Trifluoro-1-hydroxy-ethyl)-pyridin-3-yl]-2,3-dihydro-benzo[1,4]dioxine-5-carboxylic acid amide] gave a half-maximal inhibitory concentration (IC50) of 3.2 µM.

As to `NC(=O)c1cccc2c1OCC(c1cncc(C(O)C(F)(F)F)c1)O2` (single isomer, unassigned) [Cpd 49AB, 2-[5-(2,2,2-Trifluoro-1-hydroxy-ethyl)-pyridin-3-yl]-2,3-dihydro-benzo[1,4]dioxine-5-carboxylic acid amide], the IC50 is 1.1 µM.

In the case of `NC(=O)c1cccc2c1OCC(c1cncc(C(O)C(F)(F)F)c1)O2` (single isomer, unassigned) [Cpd 49BA, 2-[5-(2,2,2-Trifluoro-1-hydroxy-ethyl)-pyridin-3-yl]-2,3-dihydro-benzo[1,4]dioxine-5-carboxylic acid amide], the IC50 is 2.5 µM and 1.1 µM.

As for `N#Cc1cccc2c1OCC(c1cncc(C3(O)CCOCC3)c1)O2` (single isomer, unassigned) [Cpd 50B, 2-[5-(4-Hydroxy-tetrahydro-pyran-4-yl)-pyridin-3-yl]-2,3-dihydro-benzo[1,4]dioxine-5-carbonitrile], the IC50 worked out at 3.3 µM.

For `NC(=O)c1cccc2c1OCC(c1cncc(F)c1)O2` (single isomer, unassigned) [Cpd 51A, 2-(5-Fluoro-pyridin-3-yl)-2,3-dihydro-benzo[1,4]dioxine-5-carboxylic acid amide], half-maximal inhibition (IC50) required 1.2 µM.

Molecule `NC(=O)c1cccc2c1OCC(c1cncc(F)c1)O2` (single isomer, unassigned) [Cpd 51B, 2-(5-Fluoro-pyridin-3-yl)-2,3-dihydro-benzo[1,4]dioxine-5-carboxylic acid amide] returned an IC50 of 20 µM.

With `NC(=O)c1cccc2c1OCC(c1cncc3c1CCC3O)O2` (single isomer, unassigned) [Cpd 52AA, 2-(7-Hydroxy-6,7-dihydro-5H-[2]pyrindin-4-yl)-2,3-dihydro-benzo[1,4]dioxine-5-carboxylic acid amide], the IC50 came out at 4.1 µM.

For the molecule `NC(=O)c1cccc2c1OCC(c1cncc3c1CCC3O)O2` (single isomer, unassigned) [Cpd 52AB, 2-(7-Hydroxy-6,7-dihydro-5H-[2]pyrindin-4-yl)-2,3-dihydro-benzo[1,4]dioxine-5-carboxylic acid amide], it took 0.82 µM to reach half-maximal inhibition (IC50).

Turning to `NC(=O)c1cccc2c1OCC(c1cncc3c1CCC3O)O2` (single isomer, unassigned) [Cpd 52BA, 2-(7-Hydroxy-6,7-dihydro-5H-[2]pyrindin-4-yl)-2,3-dihydro-benzo[1,4]dioxine-5-carboxylic acid amide], the IC50 came to 16 µM.

`NC(=O)c1cccc2c1OCC(c1cncc3c1CCC3O)O2` (single isomer, unassigned) [Cpd 52BB, 2-(7-Hydroxy-6,7-dihydro-5H-[2]pyrindin-4-yl)-2,3-dihydro-benzo[1,4]dioxine-5-carboxylic acid amide]: the IC50 came to 13 µM.

On to `CCS(=O)(=O)NCc1cncc(C2COc3c(C#N)cccc3O2)c1` (single isomer, unassigned) [Cpd 54A, Ethanesulfonic acid [5-(5-cyano-2,3-dihydro-benzo[1,4]dioxin-2-yl)-pyridin-3-ylmethyl]-amide], for which inhibition was half-maximal at 23 µM (IC50).

Consider `CCS(=O)(=O)NCc1cncc(C2COc3c(C#N)cccc3O2)c1` (single isomer, unassigned) [Cpd 54B, Ethanesulfonic acid [5-(5-cyano-2,3-dihydro-benzo[1,4]dioxin-2-yl)-pyridin-3-ylmethyl]-amide], for which it took 14 µM to reach half-maximal inhibition (IC50).

For the molecule `N#Cc1cccc2c1OCC(c1cncc(CC(=O)N3CC[C@@H](O)C3)c1)O2` (single isomer, unassigned) [Cpd 55A], the IC50 is 11 µM.

In turn, `N#Cc1cccc2c1OCC(c1cncc(CC(=O)N3CC[C@@H](O)C3)c1)O2` (single isomer, unassigned) [Cpd 55B] gave an IC50 of over 30 µM.

`C[C@H](O)c1c(F)cncc1C1COc2c(cccc2C(N)=O)O1` (single isomer, unassigned) [Cpd 56A] showed an IC50 of 14 µM.

In the case of `C[C@H](O)c1c(F)cncc1C1COc2c(cccc2C(N)=O)O1` (single isomer, unassigned) [Cpd 56B], the IC50 was found to be 14 µM.

With `C[C@@H](O)c1c(F)cncc1C1COc2c(cccc2C(N)=O)O1` (single isomer, unassigned) [Cpd 57A], inhibition was half-maximal at 16 µM (IC50).

For the molecule `C[C@@H](O)c1c(F)cncc1C1COc2c(cccc2C(N)=O)O1` (single isomer, unassigned) [Cpd 57B], inhibition was half-maximal at 15 µM (IC50).

`CC(C)(O)c1c(F)cncc1C1COc2c(cccc2C(N)=O)O1` (single isomer, unassigned) [Cpd 58A, 2-[5-Fluoro-4-(1-hydroxy-1-methyl-ethyl)-pyridin-3-yl]-2,3-dihydro-benzo[1,4]dioxine-5-carboxylic acid amide]: the IC50 stood at 23 µM.

Molecule `CC(C)(O)c1c(F)cncc1C1COc2c(cccc2C(N)=O)O1` (single isomer, unassigned) [Cpd 58B, 2-[5-Fluoro-4-(1-hydroxy-1-methyl-ethyl)-pyridin-3-yl]-2,3-dihydro-benzo[1,4]dioxine-5-carboxylic acid amide] had an IC50 of 3 µM.

For `Cc1cncc(C2COc3c(cccc3C(N)=O)O2)c1` (single isomer, unassigned) [Cpd 59A, 2-(5-Methyl-pyridin-3-yl)-2,3-dihydro-benzo[1,4]dioxine-5-carboxylic acid amide], 1.1 µM corresponded to half-maximal inhibition (IC50).

Molecule `Cc1cncc(C2COc3c(cccc3C(N)=O)O2)c1` (single isomer, unassigned) [Cpd 59B, 2-(5-Methyl-pyridin-3-yl)-2,3-dihydro-benzo[1,4]dioxine-5-carboxylic acid amide] displayed an IC50 of 0.89 µM.

Molecule `CCS(=O)(=O)NC(c1cncc(C2COc3c(cccc3C(N)=O)O2)c1)C1CC1` (single isomer, unassigned) [Cpd 60AA] showed an IC50 of over 30 µM.

The molecule `CCS(=O)(=O)NC(c1cncc(C2COc3c(cccc3C(N)=O)O2)c1)C1CC1` (single isomer, unassigned) [Cpd 60AB] had a 50% inhibitory concentration (IC50) of over 30 µM.

`CCS(=O)(=O)NC(c1cncc(C2COc3c(cccc3C(N)=O)O2)c1)C1CC1` (single isomer, unassigned) [Cpd 60BA] gave an IC50 of over 30 µM.

In the case of `CCS(=O)(=O)NC(c1cncc(C2COc3c(cccc3C(N)=O)O2)c1)C1CC1` (single isomer, unassigned) [Cpd 60BB], the IC50 was over 30 µM.

Regarding `Cc1c(C#N)cncc1C1COc2c(cccc2C(N)=O)O1` (single isomer, unassigned) [Cpd 61A, 2-(5-cyano-4-methyl-pyridin-3-yl)-2,3-dihydro-benzo[1,4]dioxine-5-carboxylic acid amide], it took 25 µM to reach half-maximal inhibition (IC50).

Turning to `Cc1c(C#N)cncc1C1COc2c(cccc2C(N)=O)O1` (single isomer, unassigned) [Cpd 61B, 2-(5-cyano-4-methyl-pyridin-3-yl)-2,3-dihydro-benzo[1,4]dioxine-5-carboxylic acid amide], the IC50 amounted to 22 µM.

`CS(=N)(=O)Cc1cncc(C2COc3c(C#N)cccc3O2)c1` (single isomer, unassigned) [Cpd 62AA, 2-(5-{[imino(methyl)oxo-λ^6-sulfanyl]methyl}pyridin-3-yl)-2,3-dihydro-1,4-benzodioxine-5-carbonitrile] came in with an IC50 of over 30 µM.

As for `CS(=N)(=O)Cc1cncc(C2COc3c(C#N)cccc3O2)c1` (single isomer, unassigned) [Cpd 62AB, 2-(5-{[imino(methyl)oxo-λ^6-sulfanyl]methyl}pyridin-3-yl)-2,3-dihydro-1,4-benzodioxine-5-carbonitrile], the IC50 was over 30 µM.

With `CS(=N)(=O)Cc1cncc(C2COc3c(C#N)cccc3O2)c1` (single isomer, unassigned) [Cpd 62BA, 2-(5-{[imino(methyl)oxo-λ^6-sulfanyl]methyl}pyridin-3-yl)-2,3-dihydro-1,4-benzodioxine-5-carbonitrile], inhibition was half-maximal at 14 µM (IC50).

`CS(=N)(=O)Cc1cncc(C2COc3c(C#N)cccc3O2)c1` (single isomer, unassigned) [Cpd 62BB, 2-(5-{[imino(methyl)oxo-λ^6-sulfanyl]methyl}pyridin-3-yl)-2,3-dihydro-1,4-benzodioxine-5-carbonitrile] gave an IC50 of 18 µM.

The IC50 is the concentration needed to halve the response being measured.
